Source: patent US20140179664A1, “Heterocyclyl Pyrimidine Analogues As JAK Inhibitors” (Cellzome Limited, priority 2011, published 2014)

Target: T1, JAK3 (Homo sapiens, UniProt P52333)
T1 construct: endogenous in cells; host or cells: Molt4 (ATCC CRL-1582) and Ramos (ATCC CRL-1596), mixed lysate 1:2
T1 sequence (P52333 1-1124): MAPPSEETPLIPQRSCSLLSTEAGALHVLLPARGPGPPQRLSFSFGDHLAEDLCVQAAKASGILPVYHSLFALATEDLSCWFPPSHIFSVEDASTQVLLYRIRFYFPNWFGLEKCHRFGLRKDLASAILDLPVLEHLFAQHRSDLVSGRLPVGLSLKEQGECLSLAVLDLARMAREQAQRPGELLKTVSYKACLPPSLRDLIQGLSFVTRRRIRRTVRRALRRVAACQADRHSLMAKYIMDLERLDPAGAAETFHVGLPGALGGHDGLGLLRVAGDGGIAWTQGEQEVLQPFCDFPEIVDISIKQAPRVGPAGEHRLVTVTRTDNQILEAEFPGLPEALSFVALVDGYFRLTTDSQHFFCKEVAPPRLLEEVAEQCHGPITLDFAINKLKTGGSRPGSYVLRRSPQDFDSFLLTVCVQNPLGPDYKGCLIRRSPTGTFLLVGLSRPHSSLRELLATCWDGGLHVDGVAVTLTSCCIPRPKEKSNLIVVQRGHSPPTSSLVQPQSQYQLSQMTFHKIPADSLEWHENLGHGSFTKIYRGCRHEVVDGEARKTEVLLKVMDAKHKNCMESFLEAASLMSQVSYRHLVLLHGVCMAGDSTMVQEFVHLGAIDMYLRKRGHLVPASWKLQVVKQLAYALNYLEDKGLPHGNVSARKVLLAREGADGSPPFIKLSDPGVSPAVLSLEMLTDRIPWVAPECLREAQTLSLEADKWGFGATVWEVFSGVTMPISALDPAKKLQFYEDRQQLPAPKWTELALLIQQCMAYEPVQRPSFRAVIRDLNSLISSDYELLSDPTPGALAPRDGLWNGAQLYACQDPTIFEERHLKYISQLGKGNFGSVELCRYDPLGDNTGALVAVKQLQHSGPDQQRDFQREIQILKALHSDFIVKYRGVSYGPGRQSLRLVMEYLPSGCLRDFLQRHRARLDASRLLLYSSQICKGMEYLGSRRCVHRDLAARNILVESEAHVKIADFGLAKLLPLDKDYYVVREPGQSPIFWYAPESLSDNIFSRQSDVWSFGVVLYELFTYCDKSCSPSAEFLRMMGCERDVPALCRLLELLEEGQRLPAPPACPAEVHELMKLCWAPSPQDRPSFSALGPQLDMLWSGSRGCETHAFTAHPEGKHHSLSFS
Experiment: Kinobeads assay, JAK3
Type: binding
Details: mixed Molt4/Ramos lysate, read-out: Inhibition values (IC50) JAK3
Procedure: The compounds of the present invention as described in the previous examples were tested in a Kinobeads™ assay as described for ZAP-70 (WO-A 2007/137867). Briefly, test compounds (at various concentrations) and the affinity matrix with the immobilized aminopyrido-pyrimidine ligand 24 were added to cell lysate aliquots and allowed to bind to the proteins in the lysate sample. After the incubation time the beads with captured proteins were separated from the lysate. Bound proteins were then eluted and the presence of JAK1, JAK2, JAK3 and TYK2 was detected and quantified using specific antibodies in a dot blot procedure and the Odyssey infrared detection system. Dose response curves for individual kinases were generated and IC50 values calculated. Kinobeads™ assays for ZAP-70 (WO-A 2007/137867) and for kinase selectivity profiling (WO-A 2006/134056) have been previously described.
The affinity matrix was washed two times with 15 mL of lx DP buffer containing 0.2% NP40 (IGEPAL® CA-630, Sigma, #13021) and then resuspended in 1×DP buffer containing 0.2% NP40 (3% beads slurry).
5×DP buffer: 250 mM Tris-HCl pH 7.4, 25% Glycerol, 7.5 mM MgCl2, 750 mM NaCl, 5 mM Na3VO4; filter the 5×DP buffer through a 0.22 μm filter and store in aliquots at −80° C. The 5×DP buffer is diluted with H2O to 1×DP buffer containing 1 mM DTT and 25 mM NaF.
Stock solutions of test compounds were prepared in DMSO. In a 96 well plate […] solution of diluted test compounds at 5 mM in DMSO were prepared. Starting with this solution a 1:3 dilution series (9 steps) was prepared. For control experiments (no test compound) a buffer containing 2% DMSO was used.
Molt4 cells (ATCC catalogue number CRL-1582) and Ramos cells (ATCC catalogue number CRL-1596) were grown in 1 L Spinner flasks (Integra Biosciences, #182101) in suspension in RPMI 1640 medium (Invitrogen, #21875-034) supplemented with 10% Fetal Bovine Serum (Invitrogen) at a density between 0.15×10^6 and 1.2×10^6 cells/mL. Cells were harvested by centrifugation, washed once with 1×PBS buffer (Invitrogen, #14190-094) and cell pellets were frozen in liquid nitrogen and subsequently stored at −80° C. Cells were homogenized in a Potter S homogenizer in lysis buffer: 50 mM Tris-HCl, 0.8% NP40, 5% glycerol, 150 mM NaCl, 1.5 mM MgCl2, 25 mM NaF, 1 mM sodium vanadate, 1 mM DTT, pH 7.5. One complete EDTA-free tablet (protease inhibitor cocktail, Roche Diagnostics, 1873580) per 25 mL buffer was added. The material was dounced 10 times using a mechanized POTTER S, transferred to 50 mL falcon tubes, incubated for 30 minutes on ice and spun down for 10 minutes at 20,000 g at 4° C. (10,000 rpm in Sorvall SLA600, precooled). The supernatant was transferred to an ultracentrifuge (UZ)-polycarbonate tube (Beckmann, 355654) and spun for 1 hour at 100.000 g at 4° C. (33.500 rpm in Ti50.2, precooled). The supernatant was transferred again to a fresh 50 mL falcon tube, the protein concentration was determined by a Bradford assay (BioRad) and samples containing 50 mg of protein per aliquot were prepared. The samples were immediately used for experiments or frozen in liquid nitrogen and stored frozen at −80° C.
Cell lysate (approximately 50 mg protein per plate) was thawed in a water bath at room temperature and then stored on ice. To the thawed cell lysate 1×DP 0.8% NP40 buffer containing protease inhibitors (1 tablet for 25 mL buffer; EDTA-free protease inhibitor cocktail; Roche Diagnostics 1873580) was added in order to reach a final protein concentration of 10 mg/mL total protein. The diluted cell lysate was stored on ice. Mixed Molt4/Ramos lysate was prepared by combining one volume of Molt4 lysate and two volumes of Ramos lysate (ratio 1:2).
To a 96 well filter plate (Multiscreen HTS, BV Filter Plates, Millipore #MSBVN1250) were added per well: 100 μL affinity matrix (3% beads slurry), […], of compound solution, and 50 μL of diluted lysate. […]

Work on `Cn1cc(Nc2ncc(Cl)c(N[C@H](CO)c3ccccc3)n2)cn1` [Compound 4] yielded an IC50 of less than 100 nM.

With `CC[C@@H](Nc1nc(Nc2cnn(C)c2)ncc1Cl)c1ccccc1` [Compound 5] the IC50 was 100 to 1000 nM.

`Cn1cc(Nc2ncc(C(F)(F)F)c(N[C@H](CO)c3ccccc3)n2)cn1` [Compound 6] was tested, and the IC50 was less than 100 nM.

Molecule `Cn1cc(Nc2ncc(Cl)c(NC(C)(CO)c3ccccc3)n2)cn1` (centres unmarked) [Compound 7] has an IC50 of 100 to 1000 nM.

Molecule `Cn1cc(Nc2ncc(C(F)(F)F)c(NC(C)(CO)c3ccccc3)n2)cn1` (centres unmarked) [Compound 8] has an IC50 of 100 to 1000 nM.

`OCCn1cc(Nc2ncc(Cl)c(N[C@H](CO)c3ccccc3)n2)cn1` [Compound 9] showed an IC50 of less than 100 nM.

`OCCn1cc(Nc2ncc(F)c(N[C@H](CO)c3ccccc3)n2)cn1` [Compound 10] was tested, and the IC50 was less than 100 nM.

With `Cn1cc(-c2cccc(C(CO)Nc3nc(Nc4cnn(CCO)c4)ncc3Cl)c2)cn1` (centres unmarked) [Compound 94] the IC50 was 100 to 1000 nM.

`CCn1cc(Nc2ncc(Cl)c(N[C@H](CO)c3ccccc3OC)n2)cn1` [Compound 95] gave an IC50 of less than 100 nM.

Molecule `CCn1cc(Nc2ncc(Cl)c(N[C@H](CO)c3cccc(OC)c3)n2)cn1` [Compound 96] has an IC50 of less than 100 nM.

With `CCn1cc(Nc2ncc(Cl)c(N[C@H](CO)c3cccnc3)n2)cn1` [Compound 97] the IC50 was less than 100 nM.

For `CNC(=O)Cn1cc(Nc2ncc(Cl)c(N[C@H](CO)c3ccccc3OC)n2)cn1` [Compound 98], the IC50 was less than 100 nM.

In the case of `CNC(=O)Cn1cc(Nc2ncc(Cl)c(N[C@H](CO)c3cccc(OC)c3)n2)cn1` [Compound 99], the IC50 is reported as less than 100 nM.

In the case of `CNC(=O)Cn1cc(Nc2ncc(Cl)c(N[C@H](CO)c3ccccc3F)n2)cn1` [Compound 100], the IC50 is reported as less than 100 nM.

For `COc1ccccc1[C@@H](CO)Nc1nc(Nc2cnn(CC(=O)N3CCOCC3)c2)ncc1Cl` [Compound 101], the IC50 was less than 100 nM.

For `COc1cccc([C@@H](CO)Nc2nc(Nc3cnn(CC(=O)N4CCOCC4)c3)ncc2Cl)c1` [Compound 102], the IC50 was less than 100 nM.

`O=C(Cn1cc(Nc2ncc(Cl)c(N[C@H](CO)c3ccccc3F)n2)cn1)N1CCOCC1` [Compound 103] showed an IC50 of less than 100 nM.

`O=C(Cn1cc(Nc2ncc(Cl)c(N[C@H](CO)c3cccnc3)n2)cn1)N1CCOCC1` [Compound 104] gave an IC50 of less than 100 nM.

In the case of `COc1ccccc1[C@@H](CO)Nc1nc(Nc2cnn(C(C)C)c2)ncc1Cl` [Compound 105], the IC50 is reported as less than 100 nM.

`COc1cccc([C@@H](CO)Nc2nc(Nc3cnn(C(C)C)c3)ncc2Cl)c1` [Compound 106] showed an IC50 of 100 to 1000 nM.

`CC(C)n1cc(Nc2ncc(Cl)c(N[C@H](CO)c3cccnc3)n2)cn1` [Compound 107] showed an IC50 of less than 100 nM.

Work on `NC(=O)Cn1cc(Nc2ncc(F)c(N[C@H](CO)c3ccccc3)n2)cn1` [Compound 108] yielded an IC50 of 100 to 1000 nM.

With `CCn1cc(Nc2ncc(Cl)c(N[C@H](CO)c3ccccc3F)n2)cn1` [Compound 109] the IC50 was less than 100 nM.

`CC(C)n1cc(Nc2ncc(Cl)c(N[C@H](CO)c3ccccc3F)n2)cn1` [Compound 110] gave an IC50 of less than 100 nM.

`CNC(=O)Cn1cc(Nc2ncc(F)c(N[C@H](CO)c3ccccc3)n2)cn1` [Compound 111] gave an IC50 of less than 100 nM.

`O=C(Cn1cc(Nc2ncc(F)c(N[C@H](CO)c3ccccc3)n2)cn1)N1CCOCC1` [Compound 112] was tested, and the IC50 was less than 100 nM.

`NCCCn1cc(Nc2ncc(Cl)c(N[C@H](CO)c3ccccc3)n2)cn1` [Compound 113] showed an IC50 of less than 100 nM.

`CC(C)OCCn1cc(Nc2ncc(Cl)c(N[C@H](CO)c3ccccc3)n2)cn1` [Compound 114] was tested, and the IC50 was less than 100 nM.

`CC(C)NC(=O)Cn1cc(Nc2ncc(Cl)c(N[C@H](CO)c3ccccc3F)n2)cn1` [Compound 115] showed an IC50 of less than 100 nM.

Work on `C[C@@H](CO)NC(=O)Cn1cc(Nc2ncc(Cl)c(N[C@H](CO)c3ccccc3F)n2)cn1` [Compound 116] yielded an IC50 of less than 100 nM.

With `Cn1cc(Nc2ncc(Cl)c(NC(CO)c3ccccc3Cl)n2)cn1` (centres unmarked) [Compound 117] the IC50 was less than 100 nM.

With `NC(=O)Cn1cc(Nc2ncc(Cl)c(NC(CO)c3ccccc3Cl)n2)cn1` (centres unmarked) [Compound 118] the IC50 was less than 100 nM.

For `CNC(=O)Cn1cc(Nc2ncc(Cl)c(NC(CO)c3ccccc3Cl)n2)cn1` (centres unmarked) [Compound 119], the IC50 was less than 100 nM.

`OCCn1cc(Nc2ncc(Cl)c(NC(CO)c3ccccc3Cl)n2)cn1` (centres unmarked) [Compound 120] gave an IC50 of less than 100 nM.

In the case of `Cn1cc(Nc2ncc(Cl)c(NC(CO)c3cc(F)cc(F)c3)n2)cn1` (centres unmarked) [Compound 121], the IC50 is reported as less than 100 nM.

Work on `OCCn1cc(Nc2ncc(Cl)c(NC(CO)c3cc(F)cc(F)c3)n2)cn1` (centres unmarked) [Compound 122] yielded an IC50 of less than 100 nM.

`CNC(=O)Cn1cc(Nc2ncc(Cl)c(NC(CO)c3cc(F)cc(F)c3)n2)cn1` (centres unmarked) [Compound 123] gave an IC50 of less than 100 nM.

`Cn1cc(Nc2ncc(Cl)c(NC(CO)c3cccc(N4CCOCC4=O)c3)n2)cn1` (centres unmarked) [Compound 124] showed an IC50 of less than 100 nM.

`CCC(Nc1nc(Nc2cnn(C)c2)ncc1Cl)c1ccccc1F` (centres unmarked) [Compound 125] gave an IC50 of 100 to 1000 nM.

For `CCC(Nc1nc(Nc2cnn(CC(N)=O)c2)ncc1Cl)c1ccccc1F` (centres unmarked) [Compound 126], the IC50 was 100 to 1000 nM.

With `CN(C)C(=O)C(Nc1nc(Nc2cnn(CCO)c2)ncc1Cl)c1ccccc1F` (centres unmarked) [Compound 127] the IC50 was 100 to 1000 nM.

For `O=C(NCC(F)(F)F)C(Nc1nc(Nc2cnn(CCO)c2)ncc1Cl)c1ccccc1F` (centres unmarked) [Compound 128], the IC50 was 100 to 1000 nM.

For `Cn1cc(Nc2ncc(Cl)c(NC(CO)c3cc(F)ccc3F)n2)cn1` (centres unmarked) [Compound 129], the IC50 was less than 100 nM.

In the case of `CNC(=O)Cn1cc(Nc2ncc(Cl)c(NC(CO)c3cc(F)ccc3F)n2)cn1` (centres unmarked) [Compound 130], the IC50 is reported as less than 100 nM.

Work on `CNC(=O)Cn1cc(Nc2ncc(Cl)c(NC(CO)c3ccccc3C(F)(F)F)n2)cn1` (centres unmarked) [Compound 131] yielded an IC50 of 100 to 1000 nM.

With `NC(=O)Cn1cc(Nc2ncc(Cl)c(NC(CO)c3cc(F)ccc3F)n2)cn1` (centres unmarked) [Compound 132] the IC50 was less than 100 nM.

With `CNC(=O)Cn1cc(Nc2ncc(C)c(N[C@H](CO)c3ccccc3)n2)cn1` [Compound 133] the IC50 was less than 100 nM.
